Experimental data from US20230404929A1, “Intradermal Delivery of Extracellular Vesicle-Encapsulated Curcumin Using Dissolvable Microneedle Arrays” (priority 2020, published 2023).

How the values were obtained:
[1] = in vitro stability of curcumin in phosphate-buffered saline at 37° C.; assay type: physicochemical
[2] = system: psoriasis-like inflammation; assay: imiquimod psoriasis-like skin inflammation in mice; assay type: in vivo; conditions: skin cross-section
Excerpt: The efficacy of dMNA-delivered CA-EVs in simultaneously blocking and reversing inflammation was studied. The treatments included topical, intradermal, and dMNA application of CA-EVs, naïve EVs, and naked curcumin.

COc1cc(/C=C/C(=O)CC(=O)/C=C/c2ccc(O)c(OC)c2)ccc1O [naked curcumin, curcumin]
curcumin remaining stable ([1]; 3 hours): 5% | degradation of curcumin over time ([1]; seven-day study): degraded entirely within one day | therapeutic effect on imiquimod-induced skin inflammation [2]: negligible effect
